Data as given in ChEMBL document CHEMBL1150975, “Biochemical and three-dimensional-structural study of the specific inhibition of protein kinase CK2 by [5-oxo-5,6-dihydroindolo-(1,2-a)quinazolin-7-yl]acetic acid (IQA)” (Biochem J, 2003).

What was measured:
[1] = Inhibition of I174A-mutated CK2 holoenzyme; design: species or system Zea mays
[2] = molecular target: T1, Serine/threonine-protein kinase Chk1 (Homo sapiens) (UniProt O14757); assay: Percent residual CHK1 activity in the presence of 10uM inhibitor
T1 sequence (whole entry): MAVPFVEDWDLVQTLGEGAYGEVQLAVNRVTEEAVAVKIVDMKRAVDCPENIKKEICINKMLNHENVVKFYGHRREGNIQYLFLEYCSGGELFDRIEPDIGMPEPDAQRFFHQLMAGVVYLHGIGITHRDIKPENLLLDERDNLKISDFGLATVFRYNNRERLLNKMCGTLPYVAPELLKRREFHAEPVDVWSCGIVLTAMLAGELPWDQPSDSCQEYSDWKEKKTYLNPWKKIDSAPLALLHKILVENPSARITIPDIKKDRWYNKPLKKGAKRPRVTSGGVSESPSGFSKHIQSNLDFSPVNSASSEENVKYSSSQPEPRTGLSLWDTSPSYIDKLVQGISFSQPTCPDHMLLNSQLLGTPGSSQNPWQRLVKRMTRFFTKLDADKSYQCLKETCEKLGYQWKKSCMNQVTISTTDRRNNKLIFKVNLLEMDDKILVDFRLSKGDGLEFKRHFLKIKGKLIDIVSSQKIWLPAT

[3] = molecular target: Ribosomal protein S6 kinase alpha-1 (Homo sapiens) (UniProt Q15418); assay: Percent residual MAPKAPK1 activity in the presence of 10uM inhibitor
[4] = molecular target: RAC-alpha serine/threonine-protein kinase (Homo sapiens) (UniProt P31749); assay: Percent residual PKBalpha activity in the presence of 10uM inhibitor
[5] = molecular target: T2, cAMP-dependent protein kinase (PKA) (Homo sapiens, UniProt P22694+P17612+P22612); assay: Percent residual PKA activity in the presence of 10uM inhibitor; type: protein assay
[6] = molecular target: Tyrosine-protein kinase Lyn (Homo sapiens) (UniProt P07948); assay: Percent residual Lyn activity in the presence of 10uM inhibitor
[7] = molecular target: Mitogen-activated protein kinase 14 (Homo sapiens) (UniProt Q16539); assay: Percent residual p38alpha activity in the presence of 10uM inhibitor
[8] = molecular target: MAP kinase-activated protein kinase 2 (Homo sapiens) (UniProt P49137); assay: Percent residual MAPKAPK2 activity in the presence of 10uM inhibitor
[9] = molecular target: Tyrosine-protein kinase SYK (Homo sapiens) (UniProt P43405); assay: Percent residual Syk activity in the presence of 10uM inhibitor
[10] = molecular target: Protein kinase C alpha type (Homo sapiens) (UniProt P17252); assay: Percent residual PKCalpha activity in the presence of 10uM inhibitor
[11] = molecular target: EKC/KEOPS complex subunit BUD32 (Saccharomyces cerevisiae S288c) (UniProt P53323); assay: Percent residual PiD261 activity in the presence of 10uM inhibitor
[12] = molecular target: T3, Tyrosine-protein kinase Lck (Homo sapiens, UniProt P06239); assay: Percent residual Lck activity in the presence of 10uM inhibitor
Target sequence in this assay (P06239 2-509 limits assumed): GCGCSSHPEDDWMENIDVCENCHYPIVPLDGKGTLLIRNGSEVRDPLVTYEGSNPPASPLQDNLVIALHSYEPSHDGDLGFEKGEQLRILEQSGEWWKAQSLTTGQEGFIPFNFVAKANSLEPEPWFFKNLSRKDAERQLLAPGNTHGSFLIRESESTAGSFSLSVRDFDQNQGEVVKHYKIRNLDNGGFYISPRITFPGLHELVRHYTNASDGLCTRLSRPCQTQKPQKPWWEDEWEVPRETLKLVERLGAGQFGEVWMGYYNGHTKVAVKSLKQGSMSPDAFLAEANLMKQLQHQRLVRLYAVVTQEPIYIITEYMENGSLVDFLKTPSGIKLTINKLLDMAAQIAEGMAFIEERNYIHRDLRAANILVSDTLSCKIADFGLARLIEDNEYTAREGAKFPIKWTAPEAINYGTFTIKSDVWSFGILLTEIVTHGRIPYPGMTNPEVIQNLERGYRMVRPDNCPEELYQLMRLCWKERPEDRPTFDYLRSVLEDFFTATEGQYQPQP

[13] = molecular target: Mitogen-activated protein kinase 1 (Homo sapiens) (UniProt P28482); assay: Percent residual ERK2 activity in the presence of 10uM inhibitor
[14] = molecular target: Tyrosine-protein kinase CSK (Homo sapiens) (UniProt P41240); assay: Percent residual CSK activity in the presence of 10uM inhibitor
[15] = molecular target: Mitogen-activated protein kinase kinase kinase kinase 5 (Homo sapiens) (UniProt Q9Y4K4); assay: Percent residual G-CK activity in the presence of 10uM inhibitor
[16] = molecular target: Cyclin-dependent kinase 2 (Homo sapiens) (UniProt P24941); assay: Percent residual CDK2-cyclinA activity in the presence of 10uM inhibitor
[17] = molecular target: 5'-AMP-activated protein kinase catalytic subunit alpha-2 (Homo sapiens) (UniProt P54646); assay: Percent residual AMPK activity in the presence of 10uM inhibitor
[18] = Percent residual Phosphorylase kinase activity in the presence of 10uM inhibitor
[19] = Inhibition of V66A-mutated CK2 holoenzyme; design: species or system Zea mays
[20] = molecular target: Mitogen-activated protein kinase 11 (Homo sapiens) (UniProt Q15759); assay: Percent residual p38beta activity in the presence of 10uM inhibitor
[21] = molecular target: Angiopoietin-1 receptor (Homo sapiens) (UniProt Q02763); assay: Percent residual Tek activity in the presence of 10uM inhibitor
[22] = molecular target: Fibroblast growth factor receptor 1 (Homo sapiens) (UniProt P11362); assay: Percent residual FGFR1 activity in the presence of 10uM inhibitor
[23] = molecular target: T2, cAMP-dependent protein kinase (PKA); assay: Inhibition of PKA; type: protein assay
[24] = molecular target: Dual specificity tyrosine-phosphorylation-regulated kinase 1A (Homo sapiens, UniProt Q13627); assay: Inhibition of DYRK1a
[25] = molecular target: Glycogen synthase kinase-3 beta (Homo sapiens, UniProt P49841); assay: Inhibition of GSK3-beta
[26] = molecular target: Platelet-derived growth factor receptor beta (Homo sapiens) (UniProt P09619); assay: Percent residual PDGFRbeta activity in the presence of 10uM inhibitor
[27] = molecular target: Vascular endothelial growth factor receptor 1 (Homo sapiens) (UniProt P17948); assay: Percent residual Flt-1 activity in the presence of 10uM inhibitor
[28] = molecular target: Proto-oncogene tyrosine-protein kinase Src (Homo sapiens) (UniProt P12931); assay: Percent residual c-Src activity in the presence of 10uM inhibitor
[29] = molecular target: Hepatocyte growth factor receptor (Homo sapiens) (UniProt P08581); assay: Percent residual c-Met activity in the presence of 10uM inhibitor
[30] = molecular target: T3, Tyrosine-protein kinase Lck; assay: Inhibition of Lck
[31] = molecular target: Tyrosine-protein kinase ABL1 (Homo sapiens) (UniProt P00519); assay: Percent residual Abl activity in the presence of 10uM inhibitor
[32] = molecular target: Vascular endothelial growth factor receptor 2 (Homo sapiens) (UniProt P35968); assay: Percent residual KDR activity in the presence of 10uM inhibitor
[33] = molecular target: RAF proto-oncogene serine/threonine-protein kinase (Homo sapiens) (UniProt P04049); assay: Percent residual c-Raf-1 activity in the presence of 10uM inhibitor
[34] = molecular target: Receptor tyrosine-protein kinase erbB-2 (Homo sapiens) (UniProt P04626); assay: Percent residual Her-2 activity in the presence of 10uM inhibitor
[35] = molecular target: Insulin receptor (Homo sapiens) (UniProt P06213); assay: Percent residual Ins-R activity in the presence of 10uM inhibitor
[36] = molecular target: Epidermal growth factor receptor (Homo sapiens) (UniProt P00533); assay: Percent residual Her-1 activity in the presence of 10uM inhibitor
[37] = molecular target: Insulin-like growth factor 1 receptor (Homo sapiens) (UniProt P08069); assay: Percent residual IGF-1R activity in the presence of 10uM inhibitor
[38] = molecular target: Vascular endothelial growth factor receptor 3 (Homo sapiens) (UniProt P35916); assay: Percent residual Flt-4 activity in the presence of 10uM inhibitor
[39] = molecular target: Receptor-type tyrosine-protein kinase FLT3 (Homo sapiens) (UniProt P36888); assay: Percent residual Flt-3 activity in the presence of 10uM inhibitor

Sequence of Tyrosine-protein kinase Lyn (Homo sapiens) (P07948 2-512 limits assumed): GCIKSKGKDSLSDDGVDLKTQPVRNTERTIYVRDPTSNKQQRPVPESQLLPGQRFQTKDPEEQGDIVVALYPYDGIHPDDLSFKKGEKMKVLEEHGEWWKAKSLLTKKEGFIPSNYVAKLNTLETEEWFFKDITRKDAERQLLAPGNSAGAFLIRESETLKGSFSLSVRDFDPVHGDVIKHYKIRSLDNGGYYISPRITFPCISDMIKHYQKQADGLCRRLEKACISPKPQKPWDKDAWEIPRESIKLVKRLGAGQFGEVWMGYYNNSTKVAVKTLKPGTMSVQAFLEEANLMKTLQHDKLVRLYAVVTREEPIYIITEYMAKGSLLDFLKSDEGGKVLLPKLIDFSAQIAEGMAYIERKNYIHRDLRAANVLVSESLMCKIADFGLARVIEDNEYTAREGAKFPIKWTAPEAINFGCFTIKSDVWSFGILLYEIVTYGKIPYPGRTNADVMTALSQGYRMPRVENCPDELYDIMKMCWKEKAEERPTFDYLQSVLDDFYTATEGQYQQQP
Sequence of EKC/KEOPS complex subunit BUD32 (Saccharomyces cerevisiae S288c) (P53323 whole entry, one chain of several): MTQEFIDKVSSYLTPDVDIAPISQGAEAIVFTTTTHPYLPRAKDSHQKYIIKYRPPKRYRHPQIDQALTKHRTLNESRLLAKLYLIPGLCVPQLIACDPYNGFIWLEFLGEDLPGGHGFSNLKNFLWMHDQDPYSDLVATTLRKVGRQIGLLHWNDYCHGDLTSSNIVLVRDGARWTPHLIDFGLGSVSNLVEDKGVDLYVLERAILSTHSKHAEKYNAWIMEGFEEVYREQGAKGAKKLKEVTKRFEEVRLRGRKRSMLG
Sequence of MAP kinase-activated protein kinase 2 (Homo sapiens) (P49137 whole entry, looked up): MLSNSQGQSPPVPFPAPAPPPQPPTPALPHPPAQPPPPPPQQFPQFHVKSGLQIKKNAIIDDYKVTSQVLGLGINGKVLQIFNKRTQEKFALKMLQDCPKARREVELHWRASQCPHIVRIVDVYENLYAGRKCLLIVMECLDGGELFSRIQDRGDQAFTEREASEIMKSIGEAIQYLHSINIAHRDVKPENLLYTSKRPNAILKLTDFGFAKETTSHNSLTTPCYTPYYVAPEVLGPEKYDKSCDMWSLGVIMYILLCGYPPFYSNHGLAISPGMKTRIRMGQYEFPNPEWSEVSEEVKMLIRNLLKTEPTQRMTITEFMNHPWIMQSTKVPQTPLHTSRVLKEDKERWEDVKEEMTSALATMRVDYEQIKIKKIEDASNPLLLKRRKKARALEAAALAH
Sequence of Ribosomal protein S6 kinase alpha-1 (Homo sapiens) (Q15418 whole entry): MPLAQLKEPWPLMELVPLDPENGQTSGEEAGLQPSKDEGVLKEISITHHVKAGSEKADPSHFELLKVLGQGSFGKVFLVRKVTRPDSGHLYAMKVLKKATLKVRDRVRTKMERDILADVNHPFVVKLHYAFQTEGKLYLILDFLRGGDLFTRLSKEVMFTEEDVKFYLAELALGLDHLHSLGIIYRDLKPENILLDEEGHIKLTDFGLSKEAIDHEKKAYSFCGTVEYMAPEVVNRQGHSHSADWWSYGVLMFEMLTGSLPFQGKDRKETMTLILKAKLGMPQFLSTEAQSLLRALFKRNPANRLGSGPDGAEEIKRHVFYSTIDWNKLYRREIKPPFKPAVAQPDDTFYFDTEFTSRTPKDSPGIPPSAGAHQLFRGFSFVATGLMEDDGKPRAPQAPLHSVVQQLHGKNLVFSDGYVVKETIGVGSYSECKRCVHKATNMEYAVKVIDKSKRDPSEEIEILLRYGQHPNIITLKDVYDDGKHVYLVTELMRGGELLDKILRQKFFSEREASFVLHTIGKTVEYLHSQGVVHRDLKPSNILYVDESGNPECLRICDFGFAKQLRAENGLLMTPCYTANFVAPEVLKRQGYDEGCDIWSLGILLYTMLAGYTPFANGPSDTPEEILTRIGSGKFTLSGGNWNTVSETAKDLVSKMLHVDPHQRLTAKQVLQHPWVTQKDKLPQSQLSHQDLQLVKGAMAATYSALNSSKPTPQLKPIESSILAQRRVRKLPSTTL
Sequence of Mitogen-activated protein kinase 1 (Homo sapiens) (P28482 whole entry): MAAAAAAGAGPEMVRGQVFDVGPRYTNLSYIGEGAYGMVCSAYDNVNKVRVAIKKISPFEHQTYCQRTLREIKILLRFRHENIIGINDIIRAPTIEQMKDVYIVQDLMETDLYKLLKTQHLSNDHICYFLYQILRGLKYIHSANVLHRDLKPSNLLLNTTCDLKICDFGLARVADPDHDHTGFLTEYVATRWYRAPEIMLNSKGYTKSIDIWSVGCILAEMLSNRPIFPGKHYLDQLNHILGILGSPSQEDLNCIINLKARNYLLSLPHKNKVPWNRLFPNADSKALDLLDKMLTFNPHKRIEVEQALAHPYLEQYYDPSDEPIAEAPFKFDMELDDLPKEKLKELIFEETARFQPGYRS
Sequence of 5'-AMP-activated protein kinase catalytic subunit alpha-2 (Homo sapiens) (P54646 whole entry, looked up): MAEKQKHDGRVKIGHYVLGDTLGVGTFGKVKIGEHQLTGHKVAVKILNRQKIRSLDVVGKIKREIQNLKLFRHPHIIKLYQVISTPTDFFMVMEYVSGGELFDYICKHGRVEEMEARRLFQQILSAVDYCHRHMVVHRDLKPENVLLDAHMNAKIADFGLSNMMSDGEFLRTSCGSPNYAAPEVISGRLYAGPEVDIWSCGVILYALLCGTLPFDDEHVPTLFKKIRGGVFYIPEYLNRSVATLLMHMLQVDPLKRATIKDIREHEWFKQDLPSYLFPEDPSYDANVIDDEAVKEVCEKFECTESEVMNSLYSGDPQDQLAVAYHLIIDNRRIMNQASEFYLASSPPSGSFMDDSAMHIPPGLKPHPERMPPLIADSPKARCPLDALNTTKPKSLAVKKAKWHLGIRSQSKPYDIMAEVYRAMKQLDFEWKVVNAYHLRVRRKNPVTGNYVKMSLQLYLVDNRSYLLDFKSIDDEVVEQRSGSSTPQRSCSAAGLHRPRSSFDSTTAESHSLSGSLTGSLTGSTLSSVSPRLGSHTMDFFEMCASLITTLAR
Sequence of Mitogen-activated protein kinase 11 (Homo sapiens) (Q15759 whole entry): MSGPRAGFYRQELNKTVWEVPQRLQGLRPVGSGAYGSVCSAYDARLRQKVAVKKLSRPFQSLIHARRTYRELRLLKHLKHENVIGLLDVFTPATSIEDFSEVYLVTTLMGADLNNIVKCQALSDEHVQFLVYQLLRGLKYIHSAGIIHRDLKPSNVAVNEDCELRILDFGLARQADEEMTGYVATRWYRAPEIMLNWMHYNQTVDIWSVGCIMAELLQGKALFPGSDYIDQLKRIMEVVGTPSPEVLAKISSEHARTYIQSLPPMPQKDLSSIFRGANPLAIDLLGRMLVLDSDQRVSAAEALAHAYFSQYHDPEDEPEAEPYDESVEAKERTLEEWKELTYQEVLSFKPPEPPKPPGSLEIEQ
Sequence of Mitogen-activated protein kinase 14 (Homo sapiens) (Q16539 whole entry): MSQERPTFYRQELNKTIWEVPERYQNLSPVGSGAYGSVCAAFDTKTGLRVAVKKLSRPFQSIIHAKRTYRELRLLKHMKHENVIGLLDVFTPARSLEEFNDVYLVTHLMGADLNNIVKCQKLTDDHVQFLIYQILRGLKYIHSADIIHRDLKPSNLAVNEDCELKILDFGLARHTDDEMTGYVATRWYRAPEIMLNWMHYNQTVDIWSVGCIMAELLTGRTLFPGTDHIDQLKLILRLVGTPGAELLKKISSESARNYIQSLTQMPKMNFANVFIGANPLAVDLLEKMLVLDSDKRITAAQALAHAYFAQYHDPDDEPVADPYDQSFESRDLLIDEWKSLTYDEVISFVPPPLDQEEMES

Row | Compound | IC50 [1] [µM] | Activity [2] [%] | Activity [3] [%] | Activity [4] [%] | Activity [5] [%] | Activity [6] [%] | Activity [7] [%] | Activity [8] [%] | Activity [9] [%] | Activity [10] [%] | Activity [11] [%] | Activity [12] [%] | Activity [13] [%] | Activity [14] [%] | Activity [15] [%] | Activity [16] [%] | Activity [17] [%] | Activity [18] [%] | IC50 [19] [µM] | Activity [20] [%] | other results
1 | O=c1cc(-c2ccc(O)cc2)oc2cc(O)cc(O)c12 [APIGENIN] | 4.29 | 67 | 86 | 82 | 87 | 88 | 101 | 91 | 95 | 100 | 103 | 45 | 83 | 77 | 96 | 18 | 57 | 70 | 10 | 87 | –
2 | Cc1cc(O)c2c(c1)C(=O)c1cc(O)cc(O)c1C2=O [EMODIN] | 7.3 | 89 | 103 | 82 | 94 | 90 | 92 | 82 | 96 | 71 | 90 | 79 | 88 | 109 | 89 | 75 | 89 | 104 | 38 | 101 | –
3 | O=C(O)Cc1c2ccccc2n2c1[nH]c(=O)c1ccccc12 | 11 | 90 | 91 | 84 | 66 | 93 | 101 | 70 | 87 | 107 | 100 | 52 | 92 | 82 | 98 | 91 | 92 | 79 | 27 | 92 | Activity [21]: 80%; Activity [22]: 80%; IC50 [23]: 16 µM; IC50 [24]: 8 µM; IC50 [25]: 14 µM; Activity [26]: 80%; Activity [27]: 80%; Activity [28]: 80%; Activity [29]: 80%; IC50 [30]: 11 µM; Activity [31]: 80%; Activity [32]: 80%; Activity [33]: 80%; Activity [34]: 80%; Activity [35]: 80%; Activity [36]: 80%; Activity [37]: 80%; Activity [38]: 80%; Activity [39]: 80%
